{"source": "paper PMC3095640", "about": "“Potent Host-Directed Small-Molecule Inhibitors of Myxovirus RNA-Dependent RNA-Polymerases” (PLoS ONE, 2011)", "key": {"Influenza A/PR/8/34": {"test_system": "Influenza A/PR/8/34", "test": "Virus yield reduction assay, influenza A/PR/8/34", "format": "cell-based, influenza A strain PR8/34 (H1N1)", "details": "genome copy numbers of released progeny particles by TaqMan RT-PCR"}, "RSV (Long)": {"test_system": "RSV (Long)", "test": "microbe, parasite or virus in culture", "format": "cell-based, respiratory syncytial virus strain Long", "details": "human respiratory syncytial virus; titered through plaque assaying"}, "[1]": {"test": "Cytotoxicity (metabolic activity), BHK-21", "format": "cell-based, Rodent-Syrian hamster", "details": "Syrian hamster, BHK-21 cells, highest concentration assessed 75 µM", "protocol": "(§1) A non-radioactive cytotoxicity assay (CytoTox 96 Non-Radioactive Cytotoxicity Assay, Promega) was employed to determine the metabolic activity of cell after exposure to the compound. In a 96-well plate format, 10,000 cells per well were incubated at 37°C for 24 hours in four replicates per concentration tested in the presence of compound in two-fold dilutions starting at 75 µM. Substrate was then added and color development measured at 490 nm using a BioRad plate reader. Values were calculated according to the formula [% toxicity = 100−((experimental-background)/(maximum(vehicle treated)-background)*100)]. Values were plotted in dose-response curves and, if applicable, CC50 concentrations calculated."}, "MeV-Alaska [2]": {"test_system": "MeV-Alaska", "test": "Immunodetection of virus-encoded MeV-F", "format": "cell-based, measles virus", "details": "100 nM"}, "[3]": {"test": "Metabolic stability in human liver S9 fractions", "format": "in vitro ADME", "protocol": "JMN3-003 was mixed with liver S9 fractions (protein concentration 2.5 mg/ml) from pooled mixed gender humans (XenoTech) at a final concentration of 1 µM and reactions initiated by the addition of cofactors (1.14 mM NADPH, 1.43 mM glucose-6-phosphate, 1.43 mM uridine 5′-diphosphoglucuronic acid, 9.42 mM potassium chloride, 2.28 mM magnesium chloride) in 100 mM potassium phosphate buffer, pH 7.4. Samples were incubated at 37°C with mixing, aliquots removed after 0, 15, 30 and 60 minutes and subjected to reversed-phase LC-MS/MS (Applied Biosystems API 4000 QTRAP with heated nebulizer; Turbo IonSpray for JMN5-166) analysis. Peak areas were measured to calculate half life and percent of input compound remaining according to the formulas t1/2 = (−0.693/slope of linear regression analysis of log transformed peak area versus) and % input remaining = (peak area of test compound at tx/peak area of test compound at t0)*100. Positive controls to assess the metabolic competency of the liver S9 fractions were 7-Ethoxycoumarin, Propranolol, and Verapamil (Sigma), which were analyzed in parallel to the article. […] Aliquots were removed at distinct time points as indicated and analyzed by LC-MS/MS with detection of the compound at 254 nm. Values are expressed as percent of compound remaining at each time relative to the amount of that compound present at the starting time point."}, "smooth muscle cells": {"test_system": "smooth muscle cells", "test": "Metabolic activity of primary human smooth muscle cells", "format": "cell-based", "details": "24 hours exposure", "protocol": "as §1"}, "MeV-Alaska [4]": {"test_system": "MeV-Alaska", "test": "Cell priming: pre-treatment, wash-out, then MeV-Alaska infection", "format": "cell-based, measles virus", "details": "1.0 µM for 60 minutes"}, "[5]": {"test": "Cytotoxicity (metabolic activity), NIH-3T3", "format": "cell-based, Rodent-mouse", "details": "mouse, NIH-3T3 cells, highest concentration assessed 75 µM", "protocol": "as §1"}, "[6]": {"test": "Stability in human plasma", "details": "120-minute incubation, 37°C"}, "[7]": {"test_system": "bronchial epithelial cells", "test": "Metabolic activity of primary human bronchial epithelial cells", "format": "cell-based", "details": "24 hours exposure", "protocol": "as §1"}, "sindbis virus": {"test_system": "sindbis virus", "format": "cell-based", "details": "compared with activity against myxoviruses"}, "cdc2-cyclin B kinase": {"test_system": "cdc2-cyclin B kinase", "test": "Immunoblot of cdc2-cyclin B kinase phosphorylation status", "format": "cell-based", "details": "phospho-cdc2 (Tyr15)"}, "PBMCs": {"test_system": "PBMCs", "test": "Metabolic activity of primary human PBMCs", "format": "cell-based", "details": "24 hours exposure", "protocol": "as §1"}, "SOI Influenza A/Texas": {"test_system": "SOI Influenza A/Texas", "test": "Virus yield reduction assay, SOI influenza A/Texas", "format": "cell-based, swine-origin influenza virus isolate S-OIV Texas", "details": "genome copy numbers of released progeny particles by TaqMan RT-PCR"}, "[8]": {"test_system": "MeV H and F mediated cell-to-cell fusion", "test": "MeV glycoprotein-mediated cell-to-cell fusion assay", "design": "species or system measles virus", "details": "microscopic and luciferase reporter-based"}, "MeV (Alaska)": {"test_system": "MeV (Alaska)", "test": "microbe, parasite or virus in culture", "format": "cell-based, measles virus isolate MVi/Alaska.USA/16.00", "details": "Measles morbillivirus"}, "[9]": {"test_system": "different established cell lines (HeLa, A549, HepG2, Vero-Slam, MDCK)", "test": "Metabolic activity of different established cell lines", "format": "cell-based, human, primate, canine", "details": "at 75 µM, 24 hours", "protocol": "as §1"}, "[10]": {"test_system": "para- and orthomyxovirus family members", "test": "organism not typed", "format": "cell-based"}, "[11]": {"test": "Cytotoxicity (metabolic activity), MDCK", "format": "cell-based, Canine-dog", "details": "dog, MDCK cells, highest concentration assessed 75 µM", "protocol": "as §1"}, "HeLa cells": {"test_system": "HeLa cells", "test": "Flow-cytometric analysis of cell cycle progression", "format": "cell-based, human", "details": "JMN3-003 10 µM 36 hours, nocodazole 200 ng/ml", "protocol": "Actively proliferating HeLa cells were exposed to JMN3-003 (10 µM), hydroxyurea (4 mM), or nocodazole (200 ng/ml) for 36 hours, followed by resuspension in buffer I (20 mM citrate/PO, pH 3.0, 0.1 mM EDTA, 0.2 M Sucrose, 0.1% Triton X-100) and staining in buffer II (10 mM Citrate/PO, pH 3.8, 0.1 M sodium chloride, 20 µg/ml acridine orange) as described. Green fluorescence at 525 nm resulting from DNA intercalating acridine orange was then measured using a BD LSRII flow cytometer and FlowJo software (Tree Star) for data analysis. For comparison, unstained and stained, solvent-only exposed cells were examined in parallel."}, "[12]": {"test": "Cytotoxicity (metabolic activity), HeLa", "format": "cell-based", "details": "human, HeLa cells, highest concentration assessed 75 µM", "protocol": "as §1"}, "[13]": {"test": "Cytotoxicity (metabolic activity), MEL B16", "format": "cell-based, Rodent-mouse", "details": "mouse, MEL B16 cells, highest concentration assessed 75 µM", "protocol": "as §1"}}, "note": "Read-outs that look alike come from different tables or passages of the source.", "data": [{"smiles": "COc1ccc(-n2c(SC(C)C(=O)Nc3ccc(C)cc3Cl)nc3ccccc32)cc1", "note": "(centres unmarked) [JMN3-003]", "values": [{"measurement": "EC50", "setting": "Influenza A/PR/8/34", "result": "10 ± 1", "unit": "nM"}, {"measurement": "EC50", "setting": "RSV (Long)", "result": "70 ± 10", "unit": "nM"}, {"measurement": "CC50 at 24 h", "setting": "[1]", "result": "> 75000", "unit": "nM"}, {"measurement": "expression of virus-encoded proteins, paramyxovirus infection", "setting": "MeV-Alaska [2]", "result": "fully blocked"}, {"measurement": "half-life at 1 µM", "setting": "[3]; both sexes, human, liver S9 fractions, pH 7.4, human liver S9 fractions, up to 60 minutes, LC-MS/MS, calculated/extrapolated, read-out: half-life (t1/2)", "result": "~3.33", "unit": "h"}, {"measurement": "input material remaining intact", "setting": "[3]; human S-9 fractions, 60-minute exposure, 1 µM", "result": "approximately 80%"}, {"measurement": "metabolic activity of primary human smooth muscle cells", "setting": "smooth muscle cells", "result": "unaffected"}, {"measurement": "inhibitory effect after cell pre-treatment and wash-out", "setting": "MeV-Alaska [4]", "result": "could not detect any substantial inhibitory effect"}, {"measurement": "CC50 at 24 h", "setting": "[5]", "result": "> 75000", "unit": "nM"}, {"measurement": "stability in human plasma", "setting": "[6]", "result": "virtually unaffected"}, {"measurement": "metabolic activity of primary human bronchial epithelial cells", "setting": "[7]", "result": "only slightly affected"}, {"measurement": "activity against sindbis virus", "setting": "sindbis virus", "result": "to a lesser degree"}, {"measurement": "phosphorylation status of cdc2-cyclin B kinase", "setting": "cdc2-cyclin B kinase", "result": "increased steady state levels of phosphorylated cdc2-cyclin B kinase"}, {"measurement": "metabolic activity of primary human PBMCs", "setting": "PBMCs", "result": "unaffected"}, {"measurement": "EC50", "setting": "SOI Influenza A/Texas", "result": "40 ± 10", "unit": "nM"}, {"measurement": "MeV glycoprotein-mediated cell-to-cell fusion", "setting": "[8]", "result": "extensive membrane fusion indistinguishable from that seen in vehicle-treated controls"}, {"measurement": "EC50", "setting": "MeV (Alaska); PBMC, hPBMC from a mixed pool of healthy donors, four-parameter non-linear regression, read-out: EC50, MeV-Alaska grown on human PBMCs", "result": "90 ± 50", "unit": "nM"}, {"measurement": "EC50", "setting": "MeV (Alaska); read-out: EC50, MeV (Alaska)", "result": "30 ± 20", "unit": "nM"}, {"measurement": "EC50", "setting": "MeV (Alaska); Vero-Slam, comparison curve of figure 2, read-out: EC50, MeV-Alaska grown on Vero-Slam cells", "result": "40 ± 20", "unit": "nM"}, {"measurement": "metabolic activity of different established cell lines", "setting": "[9]", "result": "unchanged"}, {"measurement": "EC50", "setting": "[10]; range depending on the target virus, read-out: active concentrations (anti-myxovirus activity)", "result": "10 to 80", "unit": "nM"}, {"measurement": "EC50", "setting": "[10]; unidentified influenza virus, read-out: average EC50 concentrations", "result": "~40", "unit": "nM"}, {"measurement": "CC50 at 24 h", "setting": "[11]", "result": "> 75000", "unit": "nM"}, {"measurement": "DNA content of treated cells by flow cytometry", "setting": "HeLa cells", "result": "accumulation of cells in a single population with 2N DNA content"}, {"measurement": "CC50 at 24 h", "setting": "[12]", "result": "> 75000", "unit": "nM"}, {"measurement": "CC50 at 24 h", "setting": "[13]", "result": "> 75000", "unit": "nM"}]}]}
